The source made the active and inactive calls. How the calls were made is not given here.
System: CCRIS mutagenicity, Ames/micronucleus/aberration tests
Experiment: CCRIS mutagenicity studies

With Oc1ccccc1-c1ccccc1 the mutagenic call (Test System: AMES SALMONELLA TYPHIMURIUM, Strain/Indicator: TA98, Metabolic Activation: HAMSTER, LIVER, S-9, AROCLOR 1254 (10%), Method: STANDARD PLATE) was “inactive; negative”, the mutagenic call (Test System: AMES SALMONELLA TYPHIMURIUM, Strain/Indicator: TA98, Metabolic Activation: HAMSTER, LIVER, S-9, AROCLOR 1254, Method: PREINCUBATION) was “inactive; negative” and the mutagenic call (Test System: AMES SALMONELLA TYPHIMURIUM, Strain/Indicator: TA98, Metabolic Activation: NONE, Method: HOST-MEDIATED) was “inactive; negative”. For the same molecule, the mutagenic call (Test System: AMES SALMONELLA TYPHIMURIUM, Strain/Indicator: TA98, Metabolic Activation: NONE, Method: PREINCUBATION) was “inactive; negative”, the mutagenic call (Test System: AMES SALMONELLA TYPHIMURIUM, Strain/Indicator: TA98, Metabolic Activation: NONE, Method: STANDARD PLATE) was “inactive; negative” and the mutagenic call (Test System: AMES SALMONELLA TYPHIMURIUM, Strain/Indicator: TA98, Metabolic Activation: RAT, LIVER, S-9, AROCLOR 1254 (10%), Method: STANDARD PLATE) was “inactive; negative”. The mutagenic call (Test System: AMES SALMONELLA TYPHIMURIUM, Strain/Indicator: TA98, Metabolic Activation: RAT, LIVER, S-9, AROCLOR 1254, Method: PREINCUBATION) was “inactive; negative”, the mutagenic call (Test System: AMES SALMONELLA TYPHIMURIUM, Strain/Indicator: TA100, Metabolic Activation: HAMSTER, LIVER, S-9, AROCLOR 1254 (10%), Method: STANDARD PLATE) was “inactive; negative” and the mutagenic call (Test System: AMES SALMONELLA TYPHIMURIUM, Strain/Indicator: TA100, Metabolic Activation: HAMSTER, LIVER, S-9, AROCLOR 1254, Method: PREINCUBATION) was “inactive; negative”. For the same molecule, the mutagenic call (Test System: AMES SALMONELLA TYPHIMURIUM, Strain/Indicator: TA100, Metabolic Activation: NONE, Method: HOST-MEDIATED) was “inactive; negative”, the mutagenic call (Test System: AMES SALMONELLA TYPHIMURIUM, Strain/Indicator: TA100, Metabolic Activation: NONE, Method: PREINCUBATION) was “inactive; negative” and the mutagenic call (Test System: AMES SALMONELLA TYPHIMURIUM, Strain/Indicator: TA100, Metabolic Activation: NONE, Method: STANDARD PLATE) was “inactive; negative”. The mutagenic call (Test System: AMES SALMONELLA TYPHIMURIUM, Strain/Indicator: TA100, Metabolic Activation: RAT, LIVER, S-9, AROCLOR 1254 (10%), Method: STANDARD PLATE) was “inactive; negative”, the mutagenic call (Test System: AMES SALMONELLA TYPHIMURIUM, Strain/Indicator: TA100, Metabolic Activation: RAT, LIVER, S-9, AROCLOR 1254, Method: PREINCUBATION) was “inactive; negative” and the mutagenic call (Test System: AMES SALMONELLA TYPHIMURIUM, Strain/Indicator: TA1535, Metabolic Activation: HAMSTER, LIVER, S-9, AROCLOR 1254 (10%), Method: STANDARD PLATE) was “inactive; negative”. For the same molecule, the mutagenic call (Test System: AMES SALMONELLA TYPHIMURIUM, Strain/Indicator: TA1535, Metabolic Activation: HAMSTER, LIVER, S-9, AROCLOR 1254, Method: PREINCUBATION) was “inactive; negative”, the mutagenic call (Test System: AMES SALMONELLA TYPHIMURIUM, Strain/Indicator: TA1535, Metabolic Activation: NONE, Method: PREINCUBATION) was “active; positive” and the mutagenic call (Test System: AMES SALMONELLA TYPHIMURIUM, Strain/Indicator: TA1535, Metabolic Activation: NONE, Method: STANDARD PLATE) was “inactive; negative”. The mutagenic call (Test System: AMES SALMONELLA TYPHIMURIUM, Strain/Indicator: TA1535, Metabolic Activation: RAT, LIVER, S-9, AROCLOR 1254 (10%), Method: STANDARD PLATE) was “inactive; negative”, the mutagenic call (Test System: AMES SALMONELLA TYPHIMURIUM, Strain/Indicator: TA1535, Metabolic Activation: RAT, LIVER, S-9, AROCLOR 1254, Method: PREINCUBATION) was “inactive; negative” and the mutagenic call (Test System: AMES SALMONELLA TYPHIMURIUM, Strain/Indicator: TA1537, Metabolic Activation: HAMSTER, LIVER, S-9, AROCLOR 1254 (10%), Method: STANDARD PLATE) was “inactive; negative”. For the same molecule, the mutagenic call (Test System: AMES SALMONELLA TYPHIMURIUM, Strain/Indicator: TA1537, Metabolic Activation: HAMSTER, LIVER, S-9, AROCLOR 1254, Method: PREINCUBATION) was “inactive; negative”, the mutagenic call (Test System: AMES SALMONELLA TYPHIMURIUM, Strain/Indicator: TA1537, Metabolic Activation: NONE, Method: PREINCUBATION) was “inactive; negative” and the mutagenic call (Test System: AMES SALMONELLA TYPHIMURIUM, Strain/Indicator: TA1537, Metabolic Activation: NONE, Method: STANDARD PLATE) was “inactive; negative”. For the same molecule, the mutagenic call (Test System: AMES SALMONELLA TYPHIMURIUM, Strain/Indicator: TA1537, Metabolic Activation: RAT, LIVER, S-9, AROCLOR 1254 (10%), Method: STANDARD PLATE) was “inactive; negative”, the mutagenic call (Test System: AMES SALMONELLA TYPHIMURIUM, Strain/Indicator: TA1537, Metabolic Activation: RAT, LIVER, S-9, AROCLOR 1254, Method: PREINCUBATION) was “inactive; negative” and the mutagenic call (Test System: AMES SALMONELLA TYPHIMURIUM, Strain/Indicator: TA1538, Metabolic Activation: HAMSTER, LIVER, S-9, AROCLOR 1254 (10%), Method: STANDARD PLATE) was “inactive; negative”. For the same molecule, the mutagenic call (Test System: AMES SALMONELLA TYPHIMURIUM, Strain/Indicator: TA1538, Metabolic Activation: NONE, Method: STANDARD PLATE) was “inactive; negative”, the mutagenic call (Test System: AMES SALMONELLA TYPHIMURIUM, Strain/Indicator: TA1538, Metabolic Activation: RAT, LIVER, S-9, AROCLOR 1254 (10%), Method: STANDARD PLATE) was “inactive; negative” and the mutagenic call (Test System: CHO/HGPRT, Strain/Indicator: CHO/GIEMSA, Metabolic Activation: NONE, Method: STANDARD PLATE) was “active; positive”. For the same molecule, the mutagenic call (Test System: CHO/HGPRT, Strain/Indicator: CHO/GIEMSA, Metabolic Activation: RAT, LIVER, S-9, AROCLOR 1254, Method: STANDARD PLATE) was “inactive; negative”, the mutagenic call (Test System: E. COLI, Strain/Indicator: WP2, Metabolic Activation: NONE, Method: HOST-MEDIATED) was “inactive; negative” and the mutagenic call (Test System: Mouse lymphoma, Strain/Indicator: L5178Y (tk+/tk-), Metabolic Activation: None, Method: Suspension/plate) was “inactive; negative”. For the same molecule, the mutagenic call (Test System: Mouse lymphoma, Strain/Indicator: L5178Y (tk+/tk-), Metabolic Activation: Rat, Liver, S-9, Aroclor 1254, Method: Suspension/plate) was “active; equivocal (previously evaluated positive)”.
In the case of NC(=O)OC[C@@H]1[C@H](NC(=O)/C(=N\OCC(=O)O)c2csc(N)n2)C(=O)N1S(=O)(=O)O, the mutagenic call (Test System: AMES SALMONELLA TYPHIMURIUM, Strain/Indicator: TA98, Metabolic Activation: NONE) is reported as “inactive; negative”, the mutagenic call (Test System: AMES SALMONELLA TYPHIMURIUM, Strain/Indicator: TA98, Metabolic Activation: S-9) is reported as “inactive; negative” and the mutagenic call (Test System: AMES SALMONELLA TYPHIMURIUM, Strain/Indicator: TA100, Metabolic Activation: NONE) is reported as “inactive; negative”. For the same molecule, the mutagenic call (Test System: AMES SALMONELLA TYPHIMURIUM, Strain/Indicator: TA100, Metabolic Activation: S-9) was “inactive; negative”, the mutagenic call (Test System: AMES SALMONELLA TYPHIMURIUM, Strain/Indicator: TA1537, Metabolic Activation: NONE) was “inactive; negative” and the mutagenic call (Test System: AMES SALMONELLA TYPHIMURIUM, Strain/Indicator: TA1537, Metabolic Activation: S-9) was “inactive; negative”. The mutagenic call (Test System: E. COLI, Strain/Indicator: WP2 (HCR), Metabolic Activation: NONE) was “inactive; negative” and the mutagenic call (Test System: E. COLI, Strain/Indicator: WP2 (HCR), Metabolic Activation: S-9) was “inactive; negative”.
